In US20100081679A1, “DIAMINOPYRIMIDINES AS FUNGICIDES” (Bayer CropScience AG, priority 2007, published 2010):
Marks after values point to notes of the source that are not given here. One block for each molecule: values may come before it.

Experiment: logP determination via retention times, calibrated with unbranched alkan-2-ones
Assay type: physicochemical
Details: for chromatographic logP: pH 2.3, read-out: logP (pH2.3)
[1] = HPLC on reversed-phase C18, method *: 40° C., 0.1% aqueous formic acid and acetonitrile, linear gradient 10% to 95% acetonitrile
[2] = method *: HPLC reversed-phase C 18, temperature 40° C., mobile phase 0.1% aqueous formic acid and acetonitrile, linear gradient 10% to 95% acetonitrile
[3] = HPLC on reversed-phase C18, method *: 40° C., mobile phase 0.1% aqueous formic acid and acetonitrile, linear gradient 10% to 95% acetonitrile
[4] = HPLC on reversed-phase C 18, EEC Directive 79/831 Annex V.A8, method *: 40° C., 0.1% aqueous formic acid and acetonitrile, linear gradient 10% to 95% acetonitrile
[5] = HPLC reversed-phase C 18, EEC Directive 79/831 Annex V.A8, method *: 40° C., 0.1% aqueous formic acid and acetonitrile, linear gradient 10% to 95% acetonitrile
[6] = HPLC on reversed-phase C18, method **: 43° C., mobile phase 0.1% aqueous phosphoric acid and acetonitrile, linear gradient 10% to 95% acetonitrile
[7] = method *: HPLC reversed-phase C18, 40° C., 0.1% aqueous formic acid and acetonitrile, linear gradient 10% to 95% acetonitrile

Structure (SMILES): CCOC(=O)C1(Nc2nc(Nc3cccc(Cl)c3)ncc2Cl)CC1 [compound 316]
logP [3]: 3.13*

Structure (SMILES): COC(=O)Nc1ccc(Nc2ncc(Cl)c(NC3CC3)n2)c(F)c1 [compound 530]
logP [4]: 1.56*

Structure (SMILES): N#Cc1ccc(Nc2ncc(Br)c(NCC3CC3)n2)cc1 [compound 475]
logP [4]: 2.7*

Structure (SMILES): O=S(=O)(c1cccc(Nc2ncc(Br)c(NC3CC3)n2)c1)N1CCCCC1 [compound 354]
logP [3]: 2.16*

Structure (SMILES): Clc1ncc(Br)c(NC2CC2)n1 [5-bromo-2-chloro-N-cyclopropylpyrimidine-4-amine]
chromatographic logP: 1.97

Structure (SMILES): Brc1cnc(Nc2ccc(-c3nccs3)cc2)nc1NC1CC1 [compound 251]
logP (HPLC on reversed-phase C18 column (EEC Directive 79/831 Annex V.A8), method *: 40° C., 0.1% aqueous formic acid and acetonitrile, linear gradient 10% to 95% acetonitrile): 2.49*

Structure (SMILES): CC(C)(C)NS(=O)(=O)c1ccc(Nc2ncc(Cl)c(NC3CC3)n2)cc1 [compound 306]
logP [6]: 2.3**

Structure (SMILES): COC(c1cccc(Nc2ncc(Br)c(NC3CC3)n2)c1)C(F)(F)F (stereo not shown) [compound 333]
logP [3]: 2.82*

Structure (SMILES): CCN(C(C)=O)c1ccc(Nc2ncc(Br)c(NC3CC3)n2)cc1 [compound 380]
logP [7]: 1.73*

Structure (SMILES): O=C(O)c1ccc(Nc2ncc(Cl)c(NC3CC3)n2)cc1 [4-{[5-chloro-4-(cyclopropylamino)pyrimidin-2-yl]amino}benzoic acid]
chromatographic logP: 1.55

Structure (SMILES): CC(C)(C)NS(=O)(=O)Cc1cccc(Nc2ncc(Cl)c(NC3CC3)n2)c1 [compound 327]
logP [6]: 2.05**

Structure (SMILES): CC(=O)Nc1ccc(Nc2ncc(Cl)c(NCC3CC3)n2)cn1 [compound 507]
logP [4]: 0.89*

Structure (SMILES): Fc1cnc(Nc2ccccc2)nc1NC1CC1 [compound 42]
logP (method **: HPLC reversed-phase C 18, 43° C., 0.1% aqueous phosphoric acid and acetonitrile, linear gradient 10% to 95% acetonitrile): 1.45**

Structure (SMILES): CC(C)(C)C(=O)Nc1ccc(Nc2ncc(Cl)c(NC3CC3)n2)cc1 [Example 72]
logP [7]: 1.81*

Structure (SMILES): COC(=O)c1ccc(Nc2ncc(Cl)c(NC3CC3)n2)cc1Cl [compound 378]
logP [7]: 2.91*

Structure (SMILES): CC(C)(C)OC(=O)N1CCN(c2ccc(Nc3ncc(Cl)c(NC4CC4)n3)cc2)CC1 [compound 7]
logP [7]: 2.4*

Structure (SMILES): COc1cccc(Nc2ncc(Br)c(NC3CC3)n2)c1 [compound 343]
logP [3]: 1.9*

Structure (SMILES): CSc1cccc(Nc2ncc(C)c(NC3CC3)n2)c1 [compound 497]
logP [4]: 1.48*

Structure (SMILES): CC(C)NS(=O)(=O)Cc1ccc(Nc2ncc(Cl)c(NC3CC3)n2)cc1 [compound 324]
logP [6]: 1.75**

Structure (SMILES): CCSc1cccc(Nc2ncc(Cl)c(NC3CC3)n2)c1.Cc1ccc(S(=O)(=O)O)cc1 [compound 440]
logP [7]: 2.73*

Further lines, results first:

logP [1]: 1.79*
Structure (SMILES): OC(c1cccc(Nc2ncc(Cl)c(NC3CC3)n2)c1)C(F)(F)F (racemic) [compound 961]

logP [1]: 1.93*
Structure (SMILES): O=C(Nc1ccccc1)Nc1cccc(Nc2ncc(Cl)c(NC3CC3)n2)c1 [compound 717]

logP [2]: 1.68*
Structure (SMILES): CN(C)S(=O)(=O)c1ccc(Nc2ncc(F)c(NC3CC3)n2)cc1 [compound 578]

logP [1]: 2.54*
Structure (SMILES): Clc1cnc(Nc2cccc(-c3ccco3)c2)nc1NC1CC1 [compound 714]

logP [1]: 3.49*
Structure (SMILES): CCCSc1cccc(Nc2ncc(Br)c(NC3CC3)n2)c1 [compound 706]

logP [2]: 1.49*
Structure (SMILES): O=C(NC1CC1)c1cccc(Nc2ncc(Br)c(NC3CC3)n2)c1 [compound 628]

logP [1]: 1.37*
Structure (SMILES): OCc1cccc(Nc2ncc(Br)c(NC3CC3)n2)c1 [compound 766]

logP [1]: 3.46*
Structure (SMILES): Clc1ccc(Nc2ncc(Cl)c(NC3CC3)n2)cc1Cl [compound 941]

logP [1]: 2.21*
Structure (SMILES): CCOc1cccc(Nc2ncc(Cl)c(NCC3CC3)n2)c1 [compound 692]

logP [4]: 2.02*
Structure (SMILES): CC(C)(CCl)C(=O)Nc1ccc(Nc2ncc(Cl)c(NCC3CC3)n2)cc1 [compound 556]

logP [1]: 1.24*
Structure (SMILES): CCC(=O)Nc1ccc(Nc2ncc(Cl)c(NC3CC3)n2)cc1 [compound 711]

logP [5]: 2.92*
Structure (SMILES): CC(C)(C)c1ccc(Nc2ncc(Cl)c(NC3CC3)n2)cc1 [compound 829]

logP [1]: 3.92*
Structure (SMILES): CCCOc1cccc(Nc2ncc(C(F)(F)F)c(NC3CC3)n2)c1 [compound 699]

logP [1]: 1.68*
Structure (SMILES): FC(F)c1cnc(Nc2ccccc2)nc1NCC1CC1 [compound 773]

logP (HPLC reversed-phase C 18, EEC Directive 79/831 Annex V.A8, method **: 43° C., 0.1% aqueous phosphoric acid and acetonitrile, linear gradient 10% to 95% acetonitrile): 1.46**
logP [5]: 1.46*;
Structure (SMILES): O=c1ccccn1-c1cccc(Nc2ncc(Br)c(NC3CC3)n2)c1 [compound 833]

logP [2]: 2.63*
Structure (SMILES): CC(C)c1cccc(Nc2ncc(Cl)c(NC3CC3)n2)c1 [compound 633]

logP [2]: 3.35*
Structure (SMILES): Fc1cc(F)cc(Nc2ncc(Br)c(NC3CC3)n2)c1 [compound 602]

logP [1]: 1.39*
Structure (SMILES): O=c1ccccn1-c1cccc(Nc2ncc(Cl)c(NC3CC3)n2)c1 [compound 726]

logP (method **: HPLC, reversed-phase C 18, 43° C., mobile phase 0.1% aqueous phosphoric acid and acetonitrile, linear gradient from 10% to 95% acetonitrile): 0.92**
Structure (SMILES): Clc1cnc(Nc2cccc(CN3CCCC3)c2)nc1NC1CC1 [compound 1043]

logP [5]: 2.9*
Structure (SMILES): CC(C)(C)c1cccc(Nc2ncc(Cl)c(NC3CC3)n2)c1 [compound 778]

logP (method **: HPLC reversed-phase C 18, temperature 43° C., mobile phase 0.1% aqueous phosphoric acid and acetonitrile, linear gradient 10% to 95% acetonitrile): 1.81**
logP [2]: 1.78*;
Structure (SMILES): CNC(=O)c1ccc(Nc2ncc(C(F)(F)F)c(NC3CC3)n2)cc1 [compound 651]
